Values of other authors in PMC6167001 (ACS Omega, 2018).

What was measured:
[1] = molecular target: PRL76V (HIV-1 protease with mutation L76V)
[2] = tested on: HIV-1 mutants bearing L76V; details: inclusion of L76V in mutants bearing three other resistance mutations

COc1ccc(S(=O)(=O)N(C[C@H]2CCC(=O)N2)C[C@@H](O)[C@H](Cc2ccccc2)NC(=O)O[C@@H]2C[C@@H]3CCO[C@@H]3C2)cc1 [GRL-02031]
increase in inhibition constant (Ki) for PRL76V in comparison to PRWT [1]: twofold

CC(C)(C)NC(=O)[C@@H]1C[C@@H]2CCCC[C@@H]2CN1C[C@@H](O)[C@H](Cc1ccccc1)NC(=O)[C@H](CC(N)=O)NC(=O)c1ccc2ccccc2n1 [Compound 6, saquinavir]
increase in susceptibility associated with L76V [2]: eightfold

Cc1cccc(C)c1OCC(=O)N[C@@H](Cc1ccccc1)[C@@H](O)C[C@H](Cc1ccccc1)NC(=O)[C@H](C(C)C)N1CCCNC1=O [Compound 2, lopinavir]
increase in resistance associated with L76V [2]: eightfold
